In patent US4250087A, “Carboxyl terminus analogs of β-endorphin” (Hoffmann-La Roche Inc., priority 1979, dated 1981):

How the values were obtained:
[1] = test system: rat brain receptor (opiate); assay: Rat brain binding assay with tritiated βh-EP as primary ligand (Example 4); details: for IC50: 50% inhibiting concentration; for Relative Potency: receptor binding, βh-Endorphin = 100
Experimental: Opiate activity was measured in the rat brain binding assay in which tritiated βh -EP is used as primary ligand (Ferrara et al., Biochem. Biophys. Res. Comm. 89, 786 [1979]).

[2] = test system: guinea pig ileum preparations; assay: Opiate activity: depression of electrically-stimulated contractions of guinea pig ileum preparations; format: cell-based; details: for IC50: guinea pig ileum assay; for Relative Potency: guinea pig ileum, βh-Endorphin = 100
Experimental: (§1) Opiate activity was measured from the depression of electrically-stimulatedcontractions of guinea pig ileum preparations, see Kosterlitz et al., J. Pharmacol. 39, 398 (1970) and Doneen et al., Biochem. Biophys. Res. Commun. 74, 656 (1977). For analgesic assay, male ICR mice weighing 25-30 g (Simonsen Laboratories, Gilroy, CA) were used. Analgesic activity was assessed by the tail-flick method of D'Amour and Smith as described by Li et al., Biochem. Biophys. Res. Commun. 85, 795 (1978).

[3] = Analgesic assay, tail-flick method, intracerebroventricular injection; format: in vivo, male ICR mice; details: for Relative Potency: analgesic potency, βh-Endorphin = 100 (run in the same group); for AD50: intracerebroventricular injection, mice, tail-flick, 95% confidence limit in parentheses
Experimental: as §1
^a AD50 in nmole (95% confidence limit) by
intracerebroventricular injection.

opiate receptor = assay: Opiate receptor binding assay, rat brain membrane fraction (Example 2); details: for IC50: 50% inhibiting concentration, [3H-Tyr27]-βh-EP as primary ligand; for Relative Potency: receptor binding, βh-Endorphin = 100
Experimental: The opiate receptor binding assay was performed by the method of Pasternak et al., Mol. Pharmacol. 11, 340 (1975) with modifications using a membrane fraction from rat brain homogenate. [^3 H-Tyr^27 ]-βh -EP was used as primary ligand and synthetic βh -EP as standard competing ligand.

[4] = cited from earlier work
[5] = βh-EP = 100; cited from earlier work
[6] = test system: guinea pig ileum preparations; details: βh-EP = 100; cited from earlier work
[7] = tritiated βh-EP as primary ligand

Row | Molecule | IC50 [1, 7] | Relative Potency [1] | IC50 [2] | Relative Potency [2] | Relative Potency [3] | IC50 (opiate receptor) | Relative Potency (opiate receptor) | also measured
1 | CSCC[C@H](NC(=O)[C@H](Cc1ccccc1)NC(=O)CNC(=O)CNC(=O)[C@@H](N)Cc1ccc(O)cc1)C(=O)O [methionine-enkephalin, reference compound] |  |  |  |  |  |  |  | activity in rat brain binding assay (in words) [1]: low activity; activity in rat brain binding assay, relative to βh-EP [1, 7]: 5 % of βh -EP
2 | [CH3 (CH2)4 NH2^31 ]-βh -EP [[CH(CH2)4 NH2^31]-βh -EP] | 330 pM | 197 |  |  |  |  |  | 
3 | [Gln^8, Gly^31 ]-βh -EP-Gly-Gly-NH2 [[Gln^8,Gly^31]-βh -Gly--Gly--NH2] | 70 pM | 929 |  |  |  |  |  | potency in the binding assay relative to βh-EP (in words) [1]: nine times that of βh -EP
4 | [Gly^31 ]-βh -EP |  |  | 76000 pM | 168 | 83 | 590 pM | 127 | AD50 [3]: 0.077 (0.038-0.17) nmole
5 | [Gly^31 ]-βh -EP-Gly-Gly-NH2 [[Gly^31]-βh -EP--Gly--Gly--NH2] | 150 pM | 433 |  |  |  |  |  | potency in the binding assay relative to βh-EP (in words) [1]: over four times the potency of βh -EP
6 | [Gly^31 ]-βh -EP-Gly-NH2 [[Gly^31]-βh -EP--Gly--NH2] | 190 pM | 342 |  |  |  |  |  | activity in rat brain binding assay (in words) [1]: a further increase in activity
7 | [Gly^31 ]-βh -endorphinamide [[Gly^31]-βh -EP--NH2] |  |  | 64000 pM | 200 | 225 | 300 pM | 250 | AD50 [3]: 0.016 (0.008-0.032) nmole; potency in the receptor assay relative to the parent peptide (in words) (opiate receptor; Table 4): almost three times more potent
8 | [Gly^31 ]-βh -endorphinylglycine [[Gly^31]-βh -EP--Gly--OH] |  |  | 97000 pM | 132 | 217 | 490 pM | 153 | AD50 [3]: 0.043 (0.031-0.057) nmole
9 | [Phe^27, Gly^31 ]-βh -EP |  |  |  |  |  |  |  | analgesic potency relative to the parent ([4]; intravenous assay route): about 1.48 times that of the parent; relative potency previously obtained, in vivo assay [5]: 119; relative potency previously obtained, guinea pig ileum assay [6]: 128
10 | β-endorphin: the structure corresponding to positions 61-91 of β-lipotropin, namely β-endorphin (YGGFMTSEKSQTPLVTLFKNAIIKNAYKKGE; Beta-endorphin; UniProt P01189 237-267, looked up) |  |  |  |  |  |  |  | analgesic activity (in words) ([4]; intravenous route): potent analgesic activity by the intravenous route
11 | βh -Endorphin: synthetic βh -EP as standard competing ligand [reference compound] | 650 pM | 100 | 128000 pM | 100 | 100 | 750 pM | 100 | 
